Among the data in patent EP3722296B1, “DIHYDRONAPHTHYRIDINES AND RELATED COMPOUNDS USEFUL AS KINASE INHIBITORS FOR THE TREATMENT OF PROLIFERATIVE DISEASES” (Deciphera Pharmaceuticals, LLC, priority 2012, dated 2013) are IC50 values, retold here.

The test system of experiment [1] is Phospho-KIT (Tyr719). Kind of experiment: GIST430 KIT Western Blot. The format is cell-based. Particulars: GIST430 cells, 4 hours, serum-free medium; read-out: pKIT suppression by western blot analysi GIST430. In short, it runs like this:
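GIST430 cells were compound-treated in serum-free Ham's F10, then lysed. Phospho-KIT (Tyr719) was measured by western blot with fluorescence-mode ECL, and blots were reprobed for total KIT; IC50 derived from concentration response.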
Background: In western blotting, separated proteins are transferred to a membrane and probed.

In experiment [2] the test system is Phospho-KIT (Tyr719). The experiment in a line: GIST48 KIT Western Blot. The format is cell-based. The following applies: GIST48 cells, 4 hours, serum-free medium; read-out: pKIT suppression by western blot analysi GIST48. In short, it runs like this: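 Phospho-KIT (Tyr719) was immunoblotted on PVDF and imaged in fluorescence mode after ECL Plus, with stripping and reprobing for total KIT. IC50 values were derived from the blot signals.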

In experiment [3] the target is T1, Phospho-KIT (Tyr719) (Homo sapiens, UniProt P10721, K642E).
T1 construct: endogenous in cells; host or cells: GIST882
Kind of experiment: GIST882 KIT Western Blot. Particulars: GIST882 cells, 4 hours, serum-free medium; read-out: pKIT suppression by western blot analysi GIST 882. The format is cell-based. The protocol:
GIST48, GIST430, and GIST882 cells were obtained from J. Fletcher (Brigham and Women's Hospital, Boston, MA). GIST T1 cells were obtained from B. Rubin (Cleveland Clinic, Cleveland, OH) and Professor Takahiro Taguchi (Kochi Medical School, Nankoku, Kochi, Japan). […] GIST430 cells were grown in Ham's F10 medium supplemented with 15% characterized fetal bovine serum (Invitrogen, Carlsbad, CA), 30 mg/L bovine pituitary extract (BD Biosciences, San Jose, CA), 0.5% Mito+ serum extender (BD Biosciences, San Jose, CA), 1 unit/mL penicillin G, 1 µg/ml streptomycin, and 0.29 mg/mL L-glutamine at 37 °C, 5%CO2, 95% humidity. GIST T1 cells were grown in DMEM medium supplemented with 10% characterized fetal bovine serum (Invitrogen, Carlsbad, CA), 1 unit/mL penicillin G, 1 µg/ml streptomycin, and 0.29 mg/mL L-glutamine at 37 °C, 5% CO2, and 95% humidity.
Two hundred fifty thousand cells were added per well in a 24-well tissue-culture treated plate. […] Medium was aspirated, cells were washed with PBS, and serum-free RPMI1640 medium was added. […] Cells were washed with PBS, then lysed. Cell lysates were separated by SDS-PAGE and transferred to PVDF. Phospho-KIT (Tyr719) was detected using an antibody from Cell Signaling Technology (Beverly, MA), ECL Plus detection reagent (GE Healthcare, Piscataway, NJ) and a Molecular Devices Storm 840 phosphorimager in fluorescence mode. Blots were stripped and probed for total KIT using an antibody from Santa Cruz Biotech (Santa Cruz, CA). IC50 values were calculated using Prism software (Graphpad, San Diego, CA).

The test system of the next experiment is GIST T1 cells. The experiment in a line: GIST T1 Cell Proliferation Assay. The format is cell-based. The following applies: Homo sapiens, GISTT1, 72 h, 68 hours + 4 hours resazurin. For orientation: Alamar Blue is a resazurin reagent that responds to reducing activity.
Another experiment addresses c-KIT kinase (Homo sapiens, UniProt P10721). Kind of experiment: c-KIT kinase Assay. The format is biochemical. Details: cKIT residues T544-V976; GST (N); TEV cleavage site (internal); purchased deCODE Biostructures. Particulars: enzymatic assay, ATP 200 µM; read-out: KIT (wt) IC50. A digest of the protocol: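 Activity of wild-type human c-KIT kinase was followed as NADH oxidation, read as falling absorbance at 340 nm on a Synergy 2 plate reader (BioTeK) for 2 hours at 30 °C. Rates from the 0 to 1 h window were compared with an uninhibited control to give percent inhibition. IC50 values were fitted in GraphPad Prism across a range of inhibitor concentrations.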

c-KIT kinase, sequence (P10721 544-976): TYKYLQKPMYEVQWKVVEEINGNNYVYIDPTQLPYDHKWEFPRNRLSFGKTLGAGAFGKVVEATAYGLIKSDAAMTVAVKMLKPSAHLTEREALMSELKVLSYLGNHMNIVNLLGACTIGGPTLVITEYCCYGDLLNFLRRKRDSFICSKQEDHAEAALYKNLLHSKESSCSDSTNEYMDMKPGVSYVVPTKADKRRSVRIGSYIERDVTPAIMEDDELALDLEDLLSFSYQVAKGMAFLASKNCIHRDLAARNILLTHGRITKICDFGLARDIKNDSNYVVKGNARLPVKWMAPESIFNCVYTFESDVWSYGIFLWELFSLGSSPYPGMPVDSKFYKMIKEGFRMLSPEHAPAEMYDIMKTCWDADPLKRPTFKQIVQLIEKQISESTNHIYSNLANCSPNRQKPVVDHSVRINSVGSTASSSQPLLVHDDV
T1 sequence (P10721 26-976 K642E): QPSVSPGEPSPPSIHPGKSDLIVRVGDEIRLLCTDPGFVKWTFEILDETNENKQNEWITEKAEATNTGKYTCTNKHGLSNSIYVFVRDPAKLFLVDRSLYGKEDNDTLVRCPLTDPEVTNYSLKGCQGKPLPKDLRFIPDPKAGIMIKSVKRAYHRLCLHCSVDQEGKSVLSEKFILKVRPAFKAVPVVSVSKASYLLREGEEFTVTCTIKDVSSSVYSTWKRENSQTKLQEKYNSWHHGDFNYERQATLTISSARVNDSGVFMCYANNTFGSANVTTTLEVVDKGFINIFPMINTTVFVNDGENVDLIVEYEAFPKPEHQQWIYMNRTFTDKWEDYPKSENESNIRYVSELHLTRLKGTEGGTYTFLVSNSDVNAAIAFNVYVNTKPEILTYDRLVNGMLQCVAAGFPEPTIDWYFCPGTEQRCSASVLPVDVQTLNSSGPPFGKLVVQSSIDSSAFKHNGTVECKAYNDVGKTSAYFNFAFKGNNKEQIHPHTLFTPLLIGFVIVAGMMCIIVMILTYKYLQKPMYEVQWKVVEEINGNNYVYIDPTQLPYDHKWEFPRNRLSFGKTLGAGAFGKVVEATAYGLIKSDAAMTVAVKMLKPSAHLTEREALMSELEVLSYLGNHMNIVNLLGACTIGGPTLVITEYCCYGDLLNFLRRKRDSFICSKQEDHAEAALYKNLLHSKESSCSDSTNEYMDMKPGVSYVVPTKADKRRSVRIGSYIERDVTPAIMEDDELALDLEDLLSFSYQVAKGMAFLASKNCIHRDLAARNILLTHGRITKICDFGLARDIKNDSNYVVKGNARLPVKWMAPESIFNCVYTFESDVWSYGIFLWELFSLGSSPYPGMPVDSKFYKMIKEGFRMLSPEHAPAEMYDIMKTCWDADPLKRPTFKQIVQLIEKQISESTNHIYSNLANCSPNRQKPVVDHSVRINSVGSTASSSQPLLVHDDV

With `CCn1c(=O)c(-c2cc(NC(=O)Nc3cc(F)cc(F)c3)c(F)cc2Cl)cc2cnc(NC)cc21` [Example 55, 1-(4-chloro-5-(1-ethyl-7-(methylamino)-2-oxo-1,2-dihydro-1,6-naphthyridin-3-yl)-2-fluorophenyl)-3-(3,5-difluorophenyl)urea], the IC50 in the experiment on Phospho-KIT (Tyr719) [1] was 10 to 100 nM; with Phospho-KIT (Tyr719) [2], over 1000 nM; on Phospho-KIT (Tyr719) [3], 10 to 100 nM; with GIST T1 cells it was under 10 nM; at c-KIT kinase, 10 to 100 nM.
Consider `CCn1c(=O)c(-c2cc(NC(=O)Nc3cccc(F)c3)c(F)cc2Cl)cc2cnc(NC)cc21` [Example 24, 1-[4-chloro-5-(1-ethyl-7-methylamino-2-oxo-1,2-dihydro-[1,6]naphthyridin-3-yl)-2-fluoro-phenyl]-3-(3-fluoro-phenyl)-urea], for which the IC50 with Phospho-KIT (Tyr719) [1] was under 10 nM; with Phospho-KIT (Tyr719) [2], 10 to 100 nM; on Phospho-KIT (Tyr719) [3] it was 10 to 100 nM; in the experiment on GIST T1 cells, under 10 nM; at c-KIT kinase, under 10 nM.
Regarding `CCn1c(=O)c(-c2cc(NC(=O)Nc3cccc(F)c3)c(F)cc2Cl)cc2cnc(NCCOC)cc21` [Example 28, 1-(4-chloro-5-(1-ethyl-7-(2-methoxyethylamino)-2-oxo-1,2-dihydro-1,6-naphthyridin-3-yl)-2-fluorophenyl)-3-(3-fluorophenyl)urea], the IC50 in the experiment on Phospho-KIT (Tyr719) [1] lay within 10 to 100 nM; with Phospho-KIT (Tyr719) [2] it was 100 to 1000 nM; at Phospho-KIT (Tyr719) [3], 10 to 100 nM; with GIST T1 cells, 10 to 100 nM; at c-KIT kinase, 10 to 100 nM.
Turning to `CCn1c(=O)c(-c2cc(NC(=O)Nc3ccccc3F)c(F)cc2Cl)cc2cnc(NC)cc21` [Example 25, 1-[4-chloro-5-(1-ethyl-7-methylamino-2-oxo-1,2-dihydro-[1,6]naphthyridin-3-yl)-2-fluoro-phenyl]-3-(2-fluoro-phenyl)-urea], the IC50 in the experiment with Phospho-KIT (Tyr719) [1] was 10 to 100 nM; in the experiment with Phospho-KIT (Tyr719) [2], 10 to 100 nM; at Phospho-KIT (Tyr719) [3], 10 to 100 nM; in the experiment on GIST T1 cells, under 10 nM; at c-KIT kinase, under 10 nM.
As for `CCn1c(=O)c(-c2cc(NC(=O)Nc3cccc(F)c3)c(F)cc2Cl)cc2cnc(N)cc21` [Example 20, 1-(5-(7-amino-1-ethyl-2-oxo-1,2-dihydro-1,6-naphthyridin-3-yl)-4-chloro-2-fluorophenyl)-3-(3-fluorophenyl)urea], the IC50 in the experiment on Phospho-KIT (Tyr719) [1] is 10 to 100 nM; with Phospho-KIT (Tyr719) [2], 100 to 1000 nM; at Phospho-KIT (Tyr719) [3], 10 to 100 nM; on c-KIT kinase, under 10 nM.
As to `CCn1c(=O)c(-c2cc(NC(=O)Nc3ccccc3)c(F)cc2Br)cc2cnc(N)cc21` [Example 57, 1-(5-(7-amino-1-ethyl-2-oxo-1,2-dihydro-1,6-naphthyridin-3-yl)-4-bromo-2-fluorophenyl)-3-phenylurea], the IC50 in the experiment with Phospho-KIT (Tyr719) [1] was 10 to 100 nM; in the experiment with Phospho-KIT (Tyr719) [2], 100 to 1000 nM; at Phospho-KIT (Tyr719) [3], 100 to 1000 nM; in the experiment with GIST T1 cells it was under 10 nM; on c-KIT kinase it was under 10 nM.
Consider `CCn1c(=O)c(-c2cc(NC(=O)Nc3ccccc3)c(F)cc2C)cc2cnc(NC)cc21` [Example 23, 1-(5-(1-ethyl-7-(methylamino)-2-oxo-1,2-dihydro-1,6-naphthyridin-3-yl)-2-fluoro-4-methylphenyl)-3-phenylurea], for which the IC50 was 100 to 1000 nM in the experiment with Phospho-KIT (Tyr719) [2], 10 to 100 nM at Phospho-KIT (Tyr719) [3], under 10 nM with GIST T1 cells and under 10 nM on c-KIT kinase.
In the case of `CCn1c(=O)c(-c2cc(NC(=O)Nc3cc(F)cc(F)c3)c(F)cc2C)cc2cnc(NC)cc21` [Example 60, 1-(3,5-difluorophenyl)-3-(5-(1-ethyl-7-(methylamino)-2-oxo-1,2-dihydro-1,6-naphthyridin-3-yl)-2-fluoro-4-methylphenyl)urea], the IC50 in the experiment on Phospho-KIT (Tyr719) [1] is 10 to 100 nM; with Phospho-KIT (Tyr719) [2], over 1000 nM; in the experiment on GIST T1 cells it was 10 to 100 nM; at c-KIT kinase, under 10 nM.
For `CCn1c(=O)c(-c2cc(NC(=O)Nc3cc(F)ccc3F)c(F)cc2C)cc2cnc(NC)cc21` [Example 61, 1-(2,5-difluorophenyl)-3-(5-(1-ethyl-7-(methylamino)-2-oxo-1,2-dihydro-1,6-naphthyridin-3-yl)-2-fluoro-4-methylphenyl)urea], the IC50 with Phospho-KIT (Tyr719) [1] is 10 to 100 nM; in the experiment with Phospho-KIT (Tyr719) [2], over 1000 nM; in the experiment on GIST T1 cells it was under 10 nM; on c-KIT kinase, under 10 nM.
Turning to `CCn1c(=O)c(-c2cc(NC(=O)Nc3ccc(F)c(CN4CCN(C)CC4)c3)c(F)cc2Cl)cc2cnc(NC)cc21` [Example 87, 1-(4-chloro-5-(1-ethyl-7-(methylamino)-2-oxo-1,2-dihydro-1,6-naphthyridin-3-yl)-2-fluorophenyl)-3-(4-fluoro-3-((4-methylpiperazin-1-yl)methyl)phenyl)urea], the IC50 is 100 to 1000 nM with Phospho-KIT (Tyr719) [1]; 10 to 100 nM in the experiment on Phospho-KIT (Tyr719) [2]; 100 to 1000 nM at Phospho-KIT (Tyr719) [3]; 10 to 100 nM with GIST T1 cells; under 10 nM at c-KIT kinase.
Regarding `CCn1c(=O)c(-c2cc(NC(=O)Nc3cccc(F)c3F)c(F)cc2Cl)cc2cnc(NC)cc21` [Example 4, 1-(4-chloro-5-(1-ethyl-7-(methylamino)-2-oxo-1,2-dihydro-1,6-naphthyridin-3-yl)-2-fluorophenyl)-3-(2,3-difluorophenyl)urea], the IC50 is 10 to 100 nM in the experiment on Phospho-KIT (Tyr719) [1]; 10 to 100 nM with Phospho-KIT (Tyr719) [2]; under 10 nM at Phospho-KIT (Tyr719) [3]; under 10 nM with GIST T1 cells; under 10 nM on c-KIT kinase.
As to `CCn1c(=O)c(-c2cc(NC(=O)Nc3csc4ccccc34)c(F)cc2Cl)cc2cnc(NC)cc21` [Example 32, 1-(benzo[b]thiophen-3-yl)-3-(4-chloro-5-(1-ethyl-7-(methylamino)-2-oxo-1,2-dihydro-1,6-naphthyridin-3-yl)-2-fluorophenyl)urea], the IC50 is under 10 nM in the experiment with Phospho-KIT (Tyr719) [1]; under 10 nM in the experiment with Phospho-KIT (Tyr719) [2]; 10 to 100 nM on Phospho-KIT (Tyr719) [3]; under 10 nM in the experiment with GIST T1 cells; under 10 nM on c-KIT kinase.
In the case of `CCn1c(=O)c(-c2cc(NC(=O)Nc3cccc(F)c3)c(F)cc2Br)cc2cnc(NC)cc21` [Example 50, 1-(4-bromo-5-(1-ethyl-7-(methylamino)-2-oxo-1,2-dihydro-1,6-naphthyridin-3-yl)-2-fluorophenyl)-3-(3-fluorophenyl)urea], the IC50 in the experiment with Phospho-KIT (Tyr719) [1] was under 10 nM; with Phospho-KIT (Tyr719) [2], 100 to 1000 nM; at Phospho-KIT (Tyr719) [3], 10 to 100 nM; in the experiment with GIST T1 cells, 10 to 100 nM; at c-KIT kinase, under 10 nM.
As to `CCn1c(=O)c(-c2cc(NC(=O)Nc3ccccc3)c(F)cc2Cl)cc2cnc(NC)cc21` [Example 3, 1-(4-chloro-5-(1-ethyl-7-(methylamino)-2-oxo-1,2-dihydro-1,6-naphthyridin-3-yl)-2-fluorophenyl)-3-phenylurea], the IC50 in the experiment on Phospho-KIT (Tyr719) [2] is 100 to 1000 nM; on Phospho-KIT (Tyr719) [3], 10 to 100 nM; in the experiment with GIST T1 cells, under 10 nM; at c-KIT kinase it was under 10 nM.
As to `CCn1c(=O)c(-c2cc(NC(=O)Nc3ccccc3)c(F)cc2Cl)cc2cnc(NCCOC)cc21` [Example 27, 1-(4-chloro-5-(1-ethyl-7-(2-methoxyethylamino)-2-oxo-1,2-dihydro-1,6-naphthyridin-3-yl)-2-fluorophenyl)-3-phenylurea], the IC50 with Phospho-KIT (Tyr719) [1] was 10 to 100 nM; with Phospho-KIT (Tyr719) [2], 10 to 100 nM; on Phospho-KIT (Tyr719) [3] it was 100 to 1000 nM; on c-KIT kinase, under 10 nM.
Take `CCn1c(=O)c(-c2cc(NC(=O)Nc3ccccc3)c(F)cc2Cl)cc2cnc(NC(=O)N3CC(N(C)C)C3)cc21` [Example 102, N-(3-(2-chloro-4-fluoro-5-(3-phenylureido)phenyl)-1-ethyl-2-oxo-1,2-dihydro-1,6-naphthyridin-7-yl)-3-(dimethylamino)azetidine-1-carboxamide]: the IC50 in the experiment with Phospho-KIT (Tyr719) [1] is 10 to 100 nM; in the experiment on Phospho-KIT (Tyr719) [2], 10 to 100 nM; in the experiment on GIST T1 cells it was under 10 nM; at c-KIT kinase, under 10 nM.
